Series [1] concerns CXCL14 mRNA expression. Put plainly: CXCL14 transcript levels (qRT-PCR) in already differentiated SGBS adipocytes treated acutely (24h). The conditions noted are these: acute 24h treatment; spironolactone at 10 µM (Figure 3A). Format: cell-based, human. The procedure: (§1) • Figure 1 • A. Baseline circulating CXCL14 concentrations in girls with polycystic ovary syndrome (PCOS, N= 52) and in healthy age-matched controls (N= 21). Data are mean + SEM. • B. Longitudinal results of CXCL14 serum concentrations in girls with PCOS who received an oral contraceptive (OC, white circles, N= 16) or low-dose spironolactone, pioglitazone and metformin (SPIOMET, black circles, N= 15). […] SGBS human pre-adipocytes were treated chronically (10 days) with pioglitazone, spironolactone or metformin alone (A) or in combination (B, C, D) at the indicated doses across the adipoipogeic differentiation process. • A, B. CXCL14 transcript levels are presented as means + SEM from 4-5 independent experiments, and are expressed relative to values from untreated control cells. • C. […] SGBS cells were treated acutely (24h, at the indicated doses) when already differentiated adipocytes.
(§2) Cell culture reagents and drugs were from Sigma.

Series [2] has as its system CXCL14 mRNA expression. Nature of the series: cells. Format: cell-based, human. The note with it: for effect of addition to pioglitazone on pioglitazone induction of CXCL14 mRNA expression: added to pioglitazone, 10 days across differentiation (Figure 2B). The procedure:
as §1, §2

Series [3] concerns CXCL14 protein. The note with it: sgbs adipocytes, 24 h. The procedure: as §1, §2
Series [4] deals with CXCL14 protein. Nature of the series: CXCL14 protein (ELISA) in cell culture medium of differentiating SGBS cells. Format: cell-based, human. The conditions noted are these: chronic treatment across differentiation; detectable only under pioglitazone treatment.
Description: as §2
(In general: In an ELISA, binding on a coated surface is turned into a signal by an enzyme label.)

In the case of `CN(C)C(=N)N=C(N)N` [metformin], in the series with CXCL14 mRNA expression [1], the “CXCL14 mRNA expression on already differentiated human adipocytes” value is “Neither pioglitazone nor metformin alone had any effect”. In addition, the “effect of addition to pioglitazone on pioglitazone induction of CXCL14 mRNA expression” value in the series on CXCL14 mRNA expression [2] was “did not modify”.

For the molecule `CC(=O)S[C@@H]1CC2=CC(=O)CC[C@]2(C)[C@H]2CC[C@@]3(C)[C@@H](CC[C@@]34CCC(=O)O4)[C@H]12` [spironolactone], the “CXCL14 mRNA expression on already differentiated human adipocytes” value in the series with CXCL14 mRNA expression [1] is on record as “significant induction”. Besides, the “increase of the CXCL14 protein levels released by adipocytes to the cell culture medium” value with CXCL14 protein [3] is reported as roughly 8 fold. In the series with CXCL14 mRNA expression [2], the “effect of addition to pioglitazone on pioglitazone induction of CXCL14 mRNA expression” value is given as “reduced significantly”.

As to `CCc1ccc(CCOc2ccc(CC3SC(=O)NC3=O)cc2)nc1` (stereo not shown) [pioglitazone], in the series on CXCL14 protein [4], the “CXCL14 protein in the cell culture medium of differentiating cells” value stood at 0.185 ng/mL. Further, the fold induction at 0.1 µM in the series with CXCL14 mRNA expression [2] (Homo sapiens, SGBS, 240 h, read-out: induction of CXCL14 mRNA expression) is roughly 10.

For the origin of these results see patent publication EP3842803A1, “CXCL14 IN POLYCYSTIC OVARY SYNDROME” (Katholieke Universiteit Leuven, priority 2019, dated 2021).
